Data set [1] has as its system ghrelin levels. The data set can be described thus: Crossover study of pramlintide in humans: ghrelin levels (Example 6). It counts as in vivo, human. The settings on record: single SC dose of pramlintide 30 μg, n=15, FIG. 6. The protocol: FIG. 6 depicts a graph of the effect of an amylin analog on ghrelin levels in humans.
(§1) Ghrelin levels were measured in a single-center, randomized, double-blind, placebo-controlled, two-period, crossover study was designed to examine the acute effects of pramlintide, an amylin analog, in humans. The study consisted of two treatment periods (Period 1/Visit 2 and Period 2/Visit 3) with at least 72 h between each treatment period. After successful completion of all Screening procedures (including informed consent), subjects (n=15) were randomly assigned to one of two treatment sequences (pramlintide: placebo or placebo: pramlintide). Subjects were instructed to fast from 2200 h on the evening before both treatment periods until the start of the test (the next morning).
On the mornings of Period 1 and Period 2, an intravenous cannula was placed in an antecubital vein for blood sampling (t=−1 h). Vital signs and weight were measured at this time. During each treatment period, subjects received study medication (pramlintide or placebo) immediately followed by a standardized, liquid preload meal, which was to be consumed within 3 min. Subjects received a single SC dose of pramlintide 30 μg or placebo. […] The buffet meal included a selection of carbohydrate-rich foods in quantities in excess of what subjects were expected to eat. […]

Data set [2] can be described thus: Crossover study of pramlintide in humans: ad libitum buffet meal intake (Example 6). The settings on record: single SC dose of pramlintide 30 μg. It counts as in vivo, human. The method, then:
as §1
On the mornings of Period 1 and Period 2, an intravenous cannula was placed in an antecubital vein for blood sampling (t=−1 h). Vital signs and weight were measured at this time. During each treatment period, subjects received study medication (pramlintide or placebo) immediately followed by a standardized, liquid preload meal, which was to be consumed within 3 min. Subjects received a single SC dose of pramlintide 30 μg or placebo. One hour later (t=1 h), subjects consumed an ad libitum buffet meal, which was offered for 45 min. The buffet meal included a selection of carbohydrate-rich foods in quantities in excess of what subjects were expected to eat. Venous blood samples were collected over a 5.5-h period (t=−0.5 h to 5 h) for the measurement of postprandial metabolic and hormonal responses. Procedures for Period 2 were exactly as those described for Period 1, only the alternate treatment was given.

In data set [3] the test system is active ghrelin. Put plainly: Amylin receptor antagonist i.v., plasma ghrelin in fed rats (Example 4, FIG. 4B). The format is in vivo. The settings on record: AC187 3 mg/rat i.v.; five minutes after administration; fed animals; saline controls 1.4±6.4% decrease, P<0.03. The protocol: (§2) FIGS. 4A and 4B depict graphs of the effects of an amylin receptor antagonist on ghrelin levels in an animal model.
(§3) The following methods apply to Examples 1-4 as indicated. Male Harlan Sprague Dawley® (HSD) rats were housed at 22.8±0.8° C. in a 12:12 hour light:dark cycle. All experiments were performed in the light cycle. Animals were fasted for approximately 20 hours before experimentation (examples 1, 2 and 3) or fed ad libidum (Example 4). All animals were given free access to water until the start of the experiment. The animals' tails were anesthetized with 20% benzocaine (Hurricaine, Beutlich Pharmaceutical, Waukegan, Ill.), and blood samples were collected from the tail vein. Total and active ghrelin concentrations were measured using Linco RIA kits GHRA-89HK and GHRA-88HK, respectively.
In a second, related experiment, baseline blood samples for ghrelin to be assayed were taken at t=0 minutes. AC187 (lot#AR2237-18B, Amylin Pharmaceuticals, Inc.), at a dose of 3 mg/rat in 300 μl of saline or saline vehicle alone, was given by intravenous injection in the tail vein at t=0. Plasma samples were collected at time 0, 5, and 15 minutes. Five minutes after administration of AC187 in fed animals, active ghrelin concentrations increased by 16.3±4.0%, as compared to a 1.4±6.4% decrease in saline controls (P<0.03), see FIG. 4B.

The test system of data set [4] is active ghrelin. Put plainly: Amylin receptor antagonist s.c., plasma ghrelin in non-fasted rats given pentagastrin (Example 4, FIG. 4A). It counts as in vivo. The settings on record: AC187 3 mg/rat s.c. at -5 min, pentagastrin 125 μg/kg s.c. at 0 min. The method, then:
as §2, §3
These experiments were conducted to determine whether the amylin receptor antagonist AC187 blocked an effect of endogenous amylin on plasma ghrelin levels in non-fasted rats. Baseline blood samples for ghrelin to be assayed were taken at t=−10 min. AC187 (lot #AR741-72, Amylin Pharmaceuticals), at a dose of 3 mg/rat in 300 μl of saline, or saline vehicle alone, was given by subcutaneous injection (n=6, 8 respectively) at t=−5 min. Animals additionally received a subcutaneous injection of pentagastrin (Sigma, Lot#050K1525) in the amount of 125 μg/kg body mass at time=0 min. […]

The conditions of data set [5]: treated test animals; e.g., provoking marked hyperlactemia followed by hyperglycemia; cited from earlier work.
For data set [6] the following is noted: cited from earlier work.
Data set [7] relates to total plasma ghrelin. Put plainly: Dose-response effects of amylin on ghrelin levels in fasted rats (Example 3). The format is in vivo, rat. The method, then:
FIGS. 3A and 3B depict graphs of dose-response effects of rat amylin on ghrelin levels in an animal model.
as §3
These experiments were conducted to identify dose-response effects of amylin on ghrelin levels in fasted rats. Rat amylin (lot #AR2081-42A, Amylin Pharmaceuticals) in 100 μl saline was given by subcutaneous injections at doses: 0, 1, 10, 30 and 100 μg/kg (n=5, 4, 5, 5, 4 respectively) at time=0 min. Blood plasma samples were collected at time=0, 10, 20, 30, 60, 90 and 120 min after amylin injection. […] Pairwise statistical analyses were performed using Student's t-test (Instat v2.0, GraphPad Software Inc, San Diego). Results are reported as mean±standard error of the mean, and P<0.05 is used as the level of significance.

The test system of data set [8] is active ghrelin. The data set can be described thus: Amylin effect on ghrelin in area postrema-lesioned and sham operated rats (Example 5). It counts as in vivo, rat. The protocol: FIG. 5 depicts a graph of the effect of the area postrema on amylin's effect on ghrelin secretion.
In this experiment, fasted, Sprague-Dawley® rats with localized lesions of the area postrema (AP) made by vacuum aspiration 3 weeks before the experiments and sham operated rats (sham) were injected s.c. with amylin (30 μg/kg) or saline (n=4, 4 respectively). At t=0, 10, 20, 30, 60, 90 and 120 minutes after the s.c. injection, total ghrelin concentrations were measured and reports as % of the baseline.
Twenty minutes after a 30 μg/kg subcutaneous amylin injection in Sham rats, active ghrelin concentration decreased by 31.3±3.3%, while active ghrelin concentrations in saline controls increased by 23.5±22.1% (P<0.05).

The subject of data set [9] is active (acylated) ghrelin. The data set can be described thus: Effect of rat amylin on ghrelin levels in pentagastrin-treated fasted rats (Example 1). It counts as in vivo. The following applies: 10 μg rat amylin s.c. 20 min after 125 μg/kg pentagastrin s.c. The method, then: FIG. 1 depicts a graph of the effect of exogenously administered rat amylin on endogenous ghrelin levels in an animal model. 125 μg pentagastrin (PG) was administered at t=0 and 10 μg amylin was administered at t=20 (dotted lines).
as §3
HSD rats were subjected to periodic blood sampling from the topically anesthetized tail and ghrelin levels were assayed. At t=0, rats (n=6) were injected s.c. with 125 μg/kg pentagastrin (Sigma) to stimulate gastric acid secretion (PG=0 min in FIG. 1), and 20 min later were injected subcutaneously (s.c.) with 10 μg rat amylin. The blood samples were analyzed for total and active (acylated) ghrelin (Linco).

Data set [10] deals with total plasma ghrelin. Put plainly: Effect of rat amylin on ghrelin levels with and without pentagastrin in fasted rats (Example 2). It counts as in vivo. The protocol: FIGS. 2A and 2B depict graphs of the effect of rat amylin on ghrelin levels in an animal model in the presence and absence of pentagastrin.
as §3
These experiments were conducted to examine whether exogenous amylin inhibits ghrelin secretion independent of pentagastrin stimulation. Fasted rats were given either a subcutaneous injection of saline or of 30 μg/kg rat amylin (FIG. 2A) or a subcutaneous injection of either saline or 125 μg/kg pentagastrin (Sigma, Lot#050K1525) (FIG. 2B) at time=0 min. […]

No end group written: not given here.

As for `CC[C@H](C)[C@H](NC(=O)[C@@H]1CCCN1C(=O)CNC(=O)[C@H](Cc1ccccc1)NC(=O)[C@H](CC(N)=O)NC(=O)[C@H](CC(N)=O)NC(=O)[C@H](CO)NC(=O)[C@H](CO)NC(=O)[C@H](Cc1c[nH]cn1)NC(=O)[C@@H](NC(=O)[C@H](CC(C)C)NC(=O)[C@H](Cc1ccccc1)NC(=O)[C@H](CC(N)=O)NC(=O)[C@H](C)NC(=O)[C@H](CC(C)C)NC(=O)[C@H](CCCNC(=N)N)NC(=O)[C@H](CCC(N)=O)NC(=O)[C@@H](NC(=O)[C@H](C)NC(=O)[C@@H]1CSSC[C@H](NC(=O)[C@@H](N)CCCCN)C(=O)N[C@@H](CC(N)=O)C(=O)N[C@@H]([C@@H](C)O)C(=O)N[C@@H](C)C(=O)N[C@@H]([C@@H](C)O)C(=O)N1)[C@@H](C)O)C(C)C)C(=O)N[C@@H](CC(C)C)C(=O)N1CCC[C@H]1C(=O)N1CCC[C@H]1C(=O)N[C@H](C(=O)N[C@@H](CC(N)=O)C(=O)N[C@H](C(=O)NCC(=O)N[C@@H](CO)C(=O)N[C@@H](CC(N)=O)C(=O)N[C@H](C(=O)N[C@@H](Cc1ccc(O)cc1)C(N)=O)[C@@H](C)O)C(C)C)[C@@H](C)O` [pramlintide, ^25,28,29Pro-h-amylin], the “ghrelin levels following an ad libitum buffet meal compared to placebo” value in data set [1] is on record as “further reduced”. Besides, in data set [2], the “duration of the meal time compared to placebo” value is recorded as “reduced”; the “fat, carbohydrate, and protein intake compared to placebo” value is “proportionate reductions”; the “total caloric intake of the buffet meal compared to placebo” value is “reduced”.
Regarding Ac ^30Asn, ^32Tyr-sCT[8-32] [AC187], the “increase of active ghrelin concentrations” value in data set [3] was 16.3±4.0%. Moreover, in data set [4], the “active ghrelin concentrations compared to saline injected controls” value is reported as “higher”.
As for “^18Arg^25,28Pro-h-amylin (KCNTATCATQRLANFLVRSSNNFGPILPSTNVGSNTY)”, the “amylin activity in vivo” value in data set [5] was “show amylin activity in vivo”. For the same compound, in data set [6], the “solubility characteristics compared to human amylin” value is “more desirable”.
For the compound “^25Pro^26Val^28,29 Pro-h-amylin (KCNTATCATQRLANFLVHSSNNFGPVLPPTNVGSNTY)”, in data set [6], the “solubility characteristics compared to human amylin” value is “more desirable”.
Take “^28Pro-h-amylin (KCNTATCATQRLANFLVHSSNNFGAILPSTNVGSNTY)”: the “amylin activity in vivo” value in data set [5] was “show amylin activity in vivo”.
Regarding “des-^1Lys-h-amylin (CNTATCATQRLANFLVHSSNNFGAILSSTNVGSNTY; ends and bridges not checked; cysteine pairing not given here; UniProt P10997 35-70, looked up, fragment)”, the “amylin activity in vivo” value in [5] is recorded as “show amylin activity in vivo”.
Turning to des-^1Lys^18Arg^25,28Pro-h-amylin, in [5], the “amylin activity in vivo” value is “show amylin activity in vivo”.
Consider “rat amylin (KCNTATCATQRLANFLVRSSNNLGPVLPPTNVGSNTY; not fully specified; ends and bridges not checked; UniProt P12969 38-74, looked up) [rat amylin peptide hormone (AC0128, Amylin Pharmaceuticals)]”, for which the “inhibition of ghrelin at lowest dose” value in [7] (amylin dose of 1 μg/kg s.c.) is “trend to inhibit ghrelin”. In [7] (amylin doses of 10 μg/kg and above s.c., P<0.05 level), the “reduction of ghrelin, significance” value is “statistically significant”. The “total plasma ghrelin concentrations, dose-response” value in data set [7] (rat amylin s.c. 0, 1, 10, 30 and 100 μg/kg, fasted rats, FIG. 3A) is “dose-dependent reduction”. Also, the “time of ghrelin concentration nadirs after amylin injection” value in data set [7] (rat amylin s.c. 1-100 μg/kg, fasted rats) was in the range of 60 to 90 min. Besides, in data set [8] (AP-lesioned rats, 30 μg/kg s.c. amylin, P=0.24), the “difference in ghrelin concentration, amylin versus saline” value is recorded as “no significant difference”. Also, in data set [8] (AP-lesioned rats, 30 μg/kg s.c. amylin, saline +49.6±21.0%, P=0.24), the “increase of ghrelin concentration” value is on record as 13.7±17.6%. Besides, in data set [8] (Sham rats, twenty minutes after 30 μg/kg s.c. amylin, saline controls increased by 23.5±22.1%, P<0.05), the “decrease of active ghrelin concentration” value turned out to be 31.3±3.3%. Also, the “time within which active ghrelin was reduced by 50%” value in [9] is not above 1 h. Also, the “reduction of active ghrelin” value in data set [9] (FIG. 1) is 50%. Moreover, the “plasma ghrelin compared to the control, amylin alone” value in data set [10] (30 μg/kg rat amylin s.c. without pentagastrin) is “reduced”. Also, the “total plasma ghrelin compared to the saline control” value in data set [10] (30 μg/kg rat amylin s.c., FIGS. 2A and 2B) is on record as “reduction in total plasma ghrelin”.

The values are drawn from patent US20070275877A1, “Methods for Treating or Ameliorating Ghrelin-Associated Diseases and Disorders” (AMYLIN PHARMACEUTICALS, INC., priority 2003, published 2007).
